Literature values as cited in patent publication US20050187388A1, “Method for the preparation of aryl ethers” (priority 2004, published 2005).

Assays:
serotonin reuptake = serotonin reuptake (Homo sapiens, UniProt P31645)
dopamine reuptake = dopamine reuptake (Homo sapiens, UniProt Q01959)
8-OH-DPAT hypothermia = conditions: in vivo

Chain of dopamine reuptake (Q01959 whole entry): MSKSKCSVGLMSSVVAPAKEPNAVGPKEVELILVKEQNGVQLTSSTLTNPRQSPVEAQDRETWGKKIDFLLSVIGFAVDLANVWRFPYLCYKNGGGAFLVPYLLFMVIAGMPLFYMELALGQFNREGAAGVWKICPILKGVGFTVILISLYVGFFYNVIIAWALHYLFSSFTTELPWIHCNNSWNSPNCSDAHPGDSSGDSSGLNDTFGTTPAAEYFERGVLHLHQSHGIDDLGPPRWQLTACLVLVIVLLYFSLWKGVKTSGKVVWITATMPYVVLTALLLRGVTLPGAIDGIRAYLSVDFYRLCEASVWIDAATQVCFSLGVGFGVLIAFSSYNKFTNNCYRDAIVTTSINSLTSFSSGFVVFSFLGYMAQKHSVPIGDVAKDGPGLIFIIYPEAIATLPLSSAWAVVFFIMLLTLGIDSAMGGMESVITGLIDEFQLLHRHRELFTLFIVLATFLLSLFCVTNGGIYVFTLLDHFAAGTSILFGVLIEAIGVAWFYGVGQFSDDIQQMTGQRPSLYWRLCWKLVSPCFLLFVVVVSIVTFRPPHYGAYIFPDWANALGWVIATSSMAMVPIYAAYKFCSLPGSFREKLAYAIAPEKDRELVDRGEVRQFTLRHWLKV
Chain of serotonin reuptake (P31645 whole entry): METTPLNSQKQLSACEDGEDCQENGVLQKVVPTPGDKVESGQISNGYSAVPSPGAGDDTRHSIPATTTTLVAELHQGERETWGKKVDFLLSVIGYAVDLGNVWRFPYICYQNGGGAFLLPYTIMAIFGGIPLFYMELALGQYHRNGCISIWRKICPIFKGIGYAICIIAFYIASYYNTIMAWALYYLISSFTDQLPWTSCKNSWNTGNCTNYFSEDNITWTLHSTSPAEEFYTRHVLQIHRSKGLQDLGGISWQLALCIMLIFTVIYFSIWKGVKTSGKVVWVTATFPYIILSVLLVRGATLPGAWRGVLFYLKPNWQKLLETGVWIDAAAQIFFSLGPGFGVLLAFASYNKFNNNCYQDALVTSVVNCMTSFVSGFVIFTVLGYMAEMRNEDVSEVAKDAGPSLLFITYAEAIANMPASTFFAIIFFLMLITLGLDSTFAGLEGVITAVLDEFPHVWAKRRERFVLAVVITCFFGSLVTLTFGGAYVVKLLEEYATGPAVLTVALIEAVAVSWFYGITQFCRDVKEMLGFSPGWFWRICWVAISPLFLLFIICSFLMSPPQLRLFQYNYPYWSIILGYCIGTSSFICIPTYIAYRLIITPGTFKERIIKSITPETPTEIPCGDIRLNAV

CCOc1ccccc1O[C@@H](c1ccccc1)[C@@H]1CNCCO1 (racemic) [Reboxetine, 2-[α-(2-ethoxyphenoxy)benzyl]morpholine]
serotonin reuptake inhibitory activity (serotonin reuptake): only marginal
dopamine reuptake inhibitory activity (dopamine reuptake): no dopamine reuptake inhibitory activity
effect in the 8-OH-DPAT hypothermia test (8-OH-DPAT hypothermia): ineffective
